The values that follow come from US20030039980A1, “Assays for determination of functional binding of compounds to receptors” (priority 2000, published 2003).

In experiment [1] the target is T1, human PPARβ ligand binding domain (GST-PPARβ-LBD) (Homo sapiens, UniProt Q03181).
T1 construct: made in house
T1 sequence (Q03181 136-441): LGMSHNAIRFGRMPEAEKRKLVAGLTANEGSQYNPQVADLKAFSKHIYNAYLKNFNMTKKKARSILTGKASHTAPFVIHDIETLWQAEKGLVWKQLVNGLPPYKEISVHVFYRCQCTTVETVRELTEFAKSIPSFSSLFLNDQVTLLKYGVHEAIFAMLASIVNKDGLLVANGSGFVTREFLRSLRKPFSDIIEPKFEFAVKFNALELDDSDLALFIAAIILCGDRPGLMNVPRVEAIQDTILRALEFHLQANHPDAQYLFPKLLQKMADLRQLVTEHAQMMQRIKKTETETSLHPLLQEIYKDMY
T1 sequence (Q15788 631-763 partner limits assumed): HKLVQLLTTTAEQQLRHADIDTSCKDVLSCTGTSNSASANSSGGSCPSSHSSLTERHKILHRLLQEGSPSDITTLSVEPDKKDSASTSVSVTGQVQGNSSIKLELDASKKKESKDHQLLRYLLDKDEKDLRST
The experiment can be described thus: in vitro PPARβ/SRC-1 binding assay (GST-PPARβ-LBD / SRC-Luc complex captured on glutathione-sepharose beads, luciferase readout). To be noted: each ligand at final 5 μM; FIG. 3.

Experiment [2] deals with T2, human PPARα ligand binding domain (GST-PPARα-LBD) (Homo sapiens, UniProt Q07869).
T2 construct: made in house; host or cells: E. coli BL21(DE3)pLysS
T2 sequence (Q07869 164-468): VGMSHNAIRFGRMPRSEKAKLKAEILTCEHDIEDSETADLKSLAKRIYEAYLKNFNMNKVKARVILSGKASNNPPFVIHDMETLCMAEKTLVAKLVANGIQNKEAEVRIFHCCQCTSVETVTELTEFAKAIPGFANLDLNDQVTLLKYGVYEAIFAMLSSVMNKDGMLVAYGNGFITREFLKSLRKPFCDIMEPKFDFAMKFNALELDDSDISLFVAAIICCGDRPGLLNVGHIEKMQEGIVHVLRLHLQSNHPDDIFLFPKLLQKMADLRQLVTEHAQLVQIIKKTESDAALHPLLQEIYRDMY
T2 sequence (Q15788 631-763 partner limits assumed): T1 sequence (Q15788 631-763 partner limits assumed)
The experiment can be described thus: in vitro PPARα/SRC-1 binding assay (GST-PPARα-LBD / SRC-Luc complex captured on glutathione-sepharose beads, luciferase readout). The source says:
For this example, the peroxisome proliferator-activated receptor-α (PPARα) nuclear receptor was chosen. The PPAR LBD was expressed in bacteria as a GST fusion protein (GST-PPARα-LBD) for use in the assay (FIG. 1). Also chosen was a known PPARα coactivator, SRC-1 (Takeshita Endocrinology 137:3594-3597 (1996)). SRC-1 was expressed as a GST fusion protein also containing a firefly luciferase moiety (GST-SRC-Luc). The GST moiety was subsequently cleaved away from purified GST-SRC-1-Luc protein to yield a purified SRC-Luc protein (FIG. 1). A known PPARα ligand, GW2331, was also chosen for establishing the assay.
The GST-PPARα-LBD expression plasmid was prepared as follows: the human PPARα ligand binding domain including the hinge region (amino acids 164-468, accession #S74349) was PCR amplified from HepG2 first-strand cDNA using synthetic primers (SEQ ID:1 and SEQ ID:2) and native Taq polymerase. The primers were tagged with BamHI (5′) and NotI (3′) restriction sites to facilitate cloning. PCR fragments were cloned directly into pGEM®-T (Promega Corp), screened by diagnostic restriction digests, and confirmed by DNA sequence analysis. A combination of clones was used to generate a complete, error-free clone. The PPARα hinge/ligand binding domain clone was then transferred into pGEX-4T-3 (Amersham Pharmacia Biotech) as a BamH I/Not I fragment to create an in-frame fusion with GST. […]

On to `CCCCCCCN(CCc1ccc(OC(C)(CC)C(=O)O)cc1)C(=O)Nc1ccc(F)cc1F` (stereo not drawn) [GW2331, spec/2-(4-[2-(3[2,4-Difluorophenyl]-1-heptylureido)ethyl]phenoxy)-2-methylbutyric acid], for which, in experiment [1], the “binding of ligand by GST-PPARβ-LBD (luciferase activity of the isolated complex with SRC-Luc)” value is recorded as “roughly equal efficiency”. For the same molecule, the “binding of ligand by GST-PPARα-LBD (luciferase activity of the isolated complex with SRC-Luc)” value in experiment [2] (each ligand at final 5 μM, FIG. 3) is “efficiently”. In addition, the “amount of GST-PPARα-LBD/GW2331 ligand/SRC-Luc complex (luciferase activity, light units) as the ligand concentration was increased” value in experiment [2] (ligand at 0.001, 0.01, 0.1, 1.0, 10.0 and 100.0 μM, 2 h at 4° C., FIG. 2) is “also increased”.
